From patent US6376470B1, “Polymer conjugates of ara-C and ara-C derivatives” (Enzon, Inc., priority 1999, dated 2002)

Tests used:
P388/0 = assay: In vitro cytotoxicity assay (Alamar Blue), P388/0 cells; type: cell-based; conditions: 3 days incubation
Protocol: Cell Lines and Cytotoxicity Assays. Studies using P388/0 cell lines for IC50 (drug concentration inhibiting growth of cells by 50%) were maintained and conducted using standard procedures. Briefly, for IC50 determination, cells were seeded into the microwell plates at a density of 2×10^3 cells per 50 μL per well. Plates were incubated at 37° C. in a humidified incubator with 5% CO2 for 3 days. Cell growth was measured by the addition of 10 μL/well of Alamar Blue (Alamar Biosciences, Inc., Sacramento, Calif.) and the plates were incubated a further 4 hours at 37° C. The IC50 values for each compound were determined from absorbance versus dilution factor plots. All cell cultures for animal implantation were maintained at 37° C. in a humidified atmosphere of 5% CO2/[…] and subcultured once a week. All cell lines were periodically tested for Mycoplasma and were Mycoplasma free.

[1] = test system: subcutaneous human non-small cell lung carcinoma (LX-1); assay: In vivo efficacy against subcutaneous LX-1 tumor xenograft in nude mice; conditions: for Effectiveness in LX-1 solid tumor model (in words): Ara-C 100 mg/kg/dose, PEG-ara-C 20 mg/kg/dose (one fifth of native dose), i.v. x4; for Mean Vol. ± SEM at Day 24 / % Change ± SEM at Day 24 (mean percent change in individual tumor volumes from initial): LX-1 s.c. in nude mice, PEG-Ara-C 80 mg/kg; for Mean Vol. ± SEM at Day 24: i.v. x4 doses (day 1, 4, 7, 10), baseline 300 mm^3; for Mean Vol. ± SEM at Day 24 / % Change ± SEM at Day 24 (mean percent change in individual tumor volumes from initial) / T/C (%) at Day 7 / T/C (%) at Day 24 / Regression at Day 24 (#/Grp) / Complete Regression (#/Grp): total dose Ara-C 400 mg/kg; for % Change ± SEM at Day 24 (mean percent change in individual tumor volumes from initial): i.v. x4 doses; for T/C (%) at Day 7: median tumor volume treated vs control when control median approx. 1000 mm^3 (day 7); for T/C (%) at Day 7 / T/C (%) at Day 24 / Regression at Day 24 (#/Grp) / Complete Regression (#/Grp): PEG-Ara-C 80 mg/kg i.v.; for T/C (%) at Day 24: median tumor volume treated vs control when control median approx. 2400 mm^3 (day 24); for Regression at Day 24 (#/Grp): smaller tumor volume on day 24 compared to day 1
Protocol: Athymic nude mice were implanted subcutaneous with a 4-5 mm^3 tissue fragment of LX-1 collected from donor mice. The tumor trocar site was observed twice weekly and measured once palpable. […] The mice were sorted to evenly distribute tumor size, grouped into 6 to 7 mice per group, and ear punched for permanent identification. Drugs were administered intravenously every 3 days×4 doses (day 1, 4, 7 and 10) via the tail vein at an approximate rate of 0.5 mL per minute. […] Therefore, this study compares the PEG-conjugate at one fifth the native dose, and presumably much less than its MTD. Mouse weight and tumor size were measured at the beginning of study and twice weekly through week 4. Drug effectiveness were determined by comparing tumor growth in treated versus untreated (no vehicle) control mice. Five types of endpoints were used as the basis for comparison: (a) mean tumor volumes at day 24; (b) mean percent change in individual tumor volumes from initial; (c) percent difference in tumor volume (%T/C), measured when the control group's median tumor volume reached approximately 800-1100 mm^3 (exponential growth phase); (d) percent difference in tumor volume (%T/C) at day 24 and (e) the number of tumor regression (smaller tumor volume on day 24 compared to day 1) per group.

Row | Molecule | IC50 (P388/0; Mus musculus, 72 h) [nM] | Effectiveness in LX-1 solid tumor model (in words) [1] | Mean Vol. ± SEM at Day 24 [1] [mm^3] | % Change ± SEM at Day 24 (mean percent change in individual tumor volumes from initial) [1] [%] | T/C (%) at Day 7 [1] [%] | T/C (%) at Day 24 [1] [%] | Regression at Day 24 (#/Grp) [1] | Complete Regression (#/Grp) [1] | IC50 (P388/0) [nM]
1 | Nc1ccn([C@@H]2O[C@H](CO)[C@@H](O)C2(F)F)c(=O)n1 [Gemcitabine, gemcitabine] | 2 |  |  |  |  |  |  |  | 
2 | Nc1ccn([C@@H]2O[C@H](CO)[C@@H](O)[C@@H]2O)c(=O)n1 [Ara-C, 1-(β-D-arabinofuranosyl)cytosine] | 10 | ineffective | 3192.5 | 1514.8 | 112.2 | 144.6 | 0/7 | 0/7 | 
3 | PEG-amide-Gemcitabine [PEG-Gemcitabine] |  |  |  |  |  |  |  |  | 46
4 | PEG-amide-Ara-C [PEG-Ara-C] |  | significant tumor growth inhibition | 2205.0 | 557.4 | 76.4 | 73.0 | 1/6 | 1/6 | 12
